Laboratory results: patent publication US11406103B2, “Sanitizing rinse based on quat-anionic surfactant synergy” (Ecolab USA Inc., priority 2016, dated 2022)
Entries after “also recorded” stand apart in the source; their conditions may differ. Like-named read-outs stand apart in the source and are kept apart here.

Columns and labels:
Glewwe foam test = format: physicochemical
Experimental: A test was run to determine the foam profiles of the five quat solutions of Example 1. A Glewwe foam apparatus in combination with the following procedure was used for this test. First, each quat was prepared and gently poured into a Glewwe cylinder. Samples tested contained a concentration of 50 ppm of the indicated antimicrobial quats. A ruler was attached to the side of the cylinder, and the solution was level with the bottom of the ruler. The pump was turned on. Foam height was estimated by reading the average level of foaming according to the ruler. Foam height readings were taken versus time with a stopwatch or timer. The pump was turned off and height of the foam was recorded at various times. […] The foam level was read after 15 seconds of agitation and again after 60 seconds of agitation for a given amount of time. A stable foam is defined when the foam remains for several minutes after agitation is stopped. A partially stable foam breaks slowly within a minute. An unstable foam breaks rapidly in less than 15 seconds. A desirable rinse should have unstable foam to no foam. In contrast, antimicrobial hand soap should have stable foam.
The results from the foaming test are shown in FIG. 2, and described in Table 3 below.
Another foam evaluation test was run using the procedure described in Example 2.
The inclusion of additional additives (defoamer and solubilizer/booster, such as Emulsogen) to the Quat-Anionic surfactant pairs were also analyzed, provided in Table 5 below (5A-5B), using the procedure described in Example 2.

[1] = Dynamic surface tension (SITA science line t60, bubble pressure); format: physicochemical
Experimental: The SITA science line t60 measures the dynamic surface tension of liquids up to the semi-static range. Air bubbles are generated from a capillary with known radius. The bubble pressure is measured as a function of bubble life time, which can be correlated to the surface tension according to the Young-Laplace equation. […] The dynamic surface tension behavior of surfactants is particularly important in applications where a quick response of surfactant is required, for example, in short rinse cycles of automated dishwashing.
The SITA science line t60 was calibrated with DI water. […] Following calibration, the SITA was programmed to take readings at the desired time intervals (i.e., 0.3, 1.6, 3.0, 9.1 seconds).
10-15 mL were transferred into 20 mL vials and immersed in a water bath to 25° C.±2° C. The samples were equilibrated for 10-15 minutes. The samples were individually tested. After each sample was tested the SITA's cleaning procedure was run, then the surface tension of DI water was checked to ensure the SITA was adequately clean. If the DI water measurements were not within 72.0±1.0 mN/m, then the cleaning procedure was run again. […]

[2] = test system: Escherichia coli ATCC 11229; assay: Low temperature warewash sanitizing rinse test; format: cell-based; details: anionic surfactant paired with quaternary ammonium compound, in this study
Experimental: The sanitizing efficiency was determined for the experimental formulas of Table 8A-8B using the following procedure: • 1.) Set up low temperature ware wash machine to our specific settings (see 7-cycle procedure) • a. Set water Temperature (120° F.) • b. Check water Hardness (4-6 gpg) • c. Set water flow rate • d. Hand dose in chemistry, no need to set up (50 ppm Quat, 50 ppm Bleach) • e. Watch these variables throughout tests • 2.) Have 10 processed Libby glasses for each tested chemistry run • a. 5 will be unwashed controls • b. 5 will be washed to detect kill • 3.) Have enough sterile tubs to hold glasses—supplied by Micro • a. Max 20 glasses per tub, or 2 runs • 4.) Have enough swabs to collect specimen—supplied by Micro • a. Need 2 per run or 1 swab per 5 glasses • 5.) Have 1 buffer solution tube per 5 glasses, 2 per run • 6.) Have Micro bring in an E. coli suspension • 7.) Get 10 glasses ready in easy reach • 8.) Fill one glass, an inch from the top, with E. coli suspension • a. Start timer for 10 minutes at this point • 9.) Pour E. coli Suspension from first glass into second glass, from second glass into third, and so on • 10.) Dip the top inch of each soiled glass into E. coli suspension to coat rim • 11.) Set glasses upside down in a sterile tub and let dry for 10 minutes • 12.) Swab 5 of the 10 glasses as your test control group • a. […]

Molecule	Foaming Profile (Glewwe foam test)	Dynamic Surface Activity [1]	antimicrobial synergy with quat, in words [2]	further results
Dioctyl (C8) dimethyl ammonium chloride [Bardac LF80]	5	5	–	foam profile, in words (Glewwe foam test): lowest foam profile; Dynamic surface tension [1]: 69 mN/m; dynamic surface tension / surface activity, in words [1]: least surface active; also recorded: very low surface activity; also recorded: very little surface activity
Didecyl (C10) dimethyl ammonium chloride [Bardac 2250]	3	1	–	–
CCCCCCCC(=O)O [Octanoic acid]	–	–	best antimicrobial synergy	–
CCCCCCCCCC(=O)O [Decanoic acid]	–	–	best antimicrobial synergy	–
Alkyl Benzyl ammonium chloride [Uniquat QAC-50]	–	–	–	Foaming Profile (Glewwe foam test; ranking 1-5, Glewwe Foam Test, 50 ppm Quat, 6psi, 140° F.): 1; Dynamic Surface Activity ([1]; ranking 1-5 among five quats, 100 ppm quat, 75° F.): 3
